Data: ChEMBL document CHEMBL1201862, “PubChem BioAssay data set” (2004)
Active and inactive are the calls of the source.

Tests used:
[1] = target: Heat shock protein HSP 90-alpha (Homo sapiens, UniProt P07900); type: functional, organism-based
[2] = target: T1, Corticotropin-releasing factor receptor 2/Corticotropin-releasing factor-binding protein (Homo sapiens, UniProt P24387+Q13324); assay: activators of CRF receptor 2 with binding protein – uHTS hits, confirmation (AID 602473); type: functional; details: read-out: EC50_Mean
T1 sequence (Q13324 whole entry): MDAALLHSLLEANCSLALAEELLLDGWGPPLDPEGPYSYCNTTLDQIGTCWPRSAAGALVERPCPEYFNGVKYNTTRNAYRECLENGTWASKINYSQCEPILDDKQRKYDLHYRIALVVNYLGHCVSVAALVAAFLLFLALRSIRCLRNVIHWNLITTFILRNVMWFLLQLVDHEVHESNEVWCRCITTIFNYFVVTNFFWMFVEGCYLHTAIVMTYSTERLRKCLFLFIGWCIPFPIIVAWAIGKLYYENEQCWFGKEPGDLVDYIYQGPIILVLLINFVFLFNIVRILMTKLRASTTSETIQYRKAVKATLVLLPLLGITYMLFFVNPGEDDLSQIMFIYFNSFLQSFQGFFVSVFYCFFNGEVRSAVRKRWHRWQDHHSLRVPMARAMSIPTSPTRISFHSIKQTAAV
T1 sequence (P24387 whole entry): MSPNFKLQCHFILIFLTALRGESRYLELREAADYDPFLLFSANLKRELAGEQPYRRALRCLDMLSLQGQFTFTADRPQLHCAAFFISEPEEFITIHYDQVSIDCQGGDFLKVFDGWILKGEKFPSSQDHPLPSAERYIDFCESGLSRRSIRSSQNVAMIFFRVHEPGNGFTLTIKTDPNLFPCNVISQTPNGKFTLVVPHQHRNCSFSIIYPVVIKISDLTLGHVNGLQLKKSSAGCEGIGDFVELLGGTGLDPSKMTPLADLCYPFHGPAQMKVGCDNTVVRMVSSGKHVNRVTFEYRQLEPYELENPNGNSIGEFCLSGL

[3] = test system: HEK293; assay: inhibitors of LMP1-driven NF-kB reporter, dose response, cell-based, HEK293, luciferase, cherry-pick (AID 588343); type: functional; details: Homo sapiens
[4] = target: T2, Calpain-2 catalytic subunit (Sus scrofa, UniProt P43367); assay: pig calpain II inhibitor potency, dose response, biochemical, fluorogenic peptide substrate (AID 1420); type: functional
T2 sequence (P43367 whole entry): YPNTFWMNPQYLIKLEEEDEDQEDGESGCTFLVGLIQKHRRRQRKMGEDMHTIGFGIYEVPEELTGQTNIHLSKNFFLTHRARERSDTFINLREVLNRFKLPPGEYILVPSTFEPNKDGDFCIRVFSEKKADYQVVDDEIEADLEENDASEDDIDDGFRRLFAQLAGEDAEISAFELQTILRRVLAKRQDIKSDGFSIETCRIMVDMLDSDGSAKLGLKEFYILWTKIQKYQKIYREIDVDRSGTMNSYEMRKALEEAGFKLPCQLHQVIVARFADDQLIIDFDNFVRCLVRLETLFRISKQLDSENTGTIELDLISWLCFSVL

[5] = inhibitors of intracellular T. cruzi replication, confirmation, NIH3T3 host cells, beta-gal luminescence (AID 2044); type: functional, cell-based;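 note: intracellular parasites grown in NIH/3T3 mouse fibroblasts as host cells; luminescent beta-galactosidase reporter signal from transgenic T. cruzi replicating inside host cells; inhibitors lower the luminescence signal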
[6] = target: T3, Streptokinase A (Streptococcus pyogenes serotype M1, UniProt P10520); assay: S. pyogenes streptokinase expression inhibitors, potency, dose response, plasminogen activation absorbance, OD405 (AID 1914); type: functional, Streptococcus pyogenes M1 GAS;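 note: secreted streptokinase activity via plasminogen activation per viability signal from cell pellet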
T3 sequence (P10520 whole entry): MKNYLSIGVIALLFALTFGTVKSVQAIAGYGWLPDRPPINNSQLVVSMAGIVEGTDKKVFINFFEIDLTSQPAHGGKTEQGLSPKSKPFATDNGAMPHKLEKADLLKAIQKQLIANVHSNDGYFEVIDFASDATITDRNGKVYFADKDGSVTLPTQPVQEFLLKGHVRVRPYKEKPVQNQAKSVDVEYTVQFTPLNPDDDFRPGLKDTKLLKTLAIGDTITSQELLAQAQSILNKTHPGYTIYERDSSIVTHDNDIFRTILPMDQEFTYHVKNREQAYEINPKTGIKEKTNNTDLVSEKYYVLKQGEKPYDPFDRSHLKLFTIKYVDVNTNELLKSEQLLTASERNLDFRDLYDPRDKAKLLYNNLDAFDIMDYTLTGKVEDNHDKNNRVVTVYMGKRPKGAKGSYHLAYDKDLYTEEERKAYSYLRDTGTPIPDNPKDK

[7] = test system: Streptococcus sp. 'group A'; assay: growth inhibition of control SK(-) GAS strain, dose response, counter-screen for streptokinase expression inhibitor project, luminescence, kanamycin, BacTiterGlo, confirmation (AID 1900); type: functional, organism-based
[8] = test system: Streptococcus; assay: Group A Streptococcus viability loss, dose response, counter-screen for streptokinase expression inhibitor project, luminescence, BacTiterGlo (AID 1915); type: functional, organism-based;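 note: potency for reduction of bacterial viability or growth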
[9] = cytotoxicity toward NIH3T3 fibroblasts, dose response, counter-screen, cell-based, ATP luminescence, mouse fibroblasts (AID 2010); type: functional;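 note: cells exposed to compound for about 90 hours before reading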
[10] = target: Genome polyprotein (dengue virus type 2, UniProt P29990); assay: Dengue-2 NS5 methyltransferase inhibitors, primary screen, biochemical, confirmation dose response (AID 588689); type: functional
Chain of Genome polyprotein (P29990 2492-3391 limits assumed): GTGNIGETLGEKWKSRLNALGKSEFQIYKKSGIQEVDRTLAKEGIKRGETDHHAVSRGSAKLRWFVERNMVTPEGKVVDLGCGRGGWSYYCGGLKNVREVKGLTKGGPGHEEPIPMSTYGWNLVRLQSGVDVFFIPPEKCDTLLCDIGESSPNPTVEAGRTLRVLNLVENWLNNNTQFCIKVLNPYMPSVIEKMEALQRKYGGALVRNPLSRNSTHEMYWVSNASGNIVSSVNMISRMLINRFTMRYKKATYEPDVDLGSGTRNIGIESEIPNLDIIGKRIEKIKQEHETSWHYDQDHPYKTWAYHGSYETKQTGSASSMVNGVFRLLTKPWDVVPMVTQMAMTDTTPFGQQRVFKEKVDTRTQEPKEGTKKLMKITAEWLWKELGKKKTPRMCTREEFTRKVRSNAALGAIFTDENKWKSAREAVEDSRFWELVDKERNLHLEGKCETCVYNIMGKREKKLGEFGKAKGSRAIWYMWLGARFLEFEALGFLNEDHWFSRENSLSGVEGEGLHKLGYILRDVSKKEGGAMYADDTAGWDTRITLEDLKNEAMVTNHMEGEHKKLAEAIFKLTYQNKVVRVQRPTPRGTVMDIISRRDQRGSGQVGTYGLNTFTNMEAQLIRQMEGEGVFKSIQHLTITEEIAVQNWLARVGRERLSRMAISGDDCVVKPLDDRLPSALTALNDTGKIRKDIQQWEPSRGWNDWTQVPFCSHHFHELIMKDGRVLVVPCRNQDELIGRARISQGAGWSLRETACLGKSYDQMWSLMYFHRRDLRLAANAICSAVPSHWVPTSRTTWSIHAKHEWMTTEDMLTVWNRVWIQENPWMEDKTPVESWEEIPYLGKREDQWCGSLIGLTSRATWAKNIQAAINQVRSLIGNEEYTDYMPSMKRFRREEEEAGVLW

[11] = test system: H9c2; assay: cells; type: functional, cell-based; details: Rattus norvegicus, H9c2, Myocardium;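 note: confirmatory concentration-response retest of ultra-high-throughput screening hits for modulation of myocardial damage; cell death induced by hydrogen peroxide oxidative stress; compound pretreatment for 60 min then peroxide exposure for 2 h; potency is for protecting the cells against peroxide damage rather than for killing them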
[12] = P. falciparum Dd2 growth inhibitors, dose response, SYBR Green, cherry-picked samples (AID 1159567); type: functional, cell-based

COc1ccc(-c2cc(C(=O)N3CCN(c4ccccc4F)CC3)c3ccccc3n2)c(OC)c1
AC50 [1]: 5.77 µM (active)

CC1(c2nnc(Cc3ccccc3)o2)CC(c2ccccc2[N+](=O)[O-])=NO1 (configuration not stated)
AC50 [1]: 1.59 µM (active)

COc1ccc(C2=CC(c3ccc(C)cc3)n3nnnc3N2)cc1 (configuration not stated)
EC50 [2]: > 53 µM (inactive)

CCN1CCN(Cc2ccc(NC(=O)c3ccc(C)c(NC(=O)c4cccc(-c5cnnc(O)c5)c4)c3)cc2C(F)(F)F)CC1
AC50 [3]: 1.83 µM (active)

CCC(C(=O)OCC(=O)Nc1ccc(Cl)c(S(=O)(=O)N(C)C)c1)c1ccccc1 (configuration not stated)
IC50 [4]: 13.3 µM (not active)

Oc1c(N=NC(S)=Nc2ccccc2F)c2ccccc2n1Cc1ccc(F)cc1
AC50 [3]: 4.02 µM (active) | EC50 [5]: 1.06 µM (active) | EC50 [6]: 0.607 µM (inconclusive) | EC50 [7]: 2.84 µM (active) | EC50 [8]: 17.8 µM (active) | EC50 [9]: 1.62 µM (active)

CCc1ccc([C@@H]2CC=C(C(=O)O)[C@H](c3ccc(C)cc3)N2S(=O)(=O)c2ccc(C)cc2)cc1
IC50 [10]: 41.2 µM (active)

COc1ccc2c(c1)[C@H]1[C@H](CO2)[C@H](c2ccccc2)[C@]2(C)C(=O)Nc3ccc(C)cc3C(=O)N12
AC50 [1]: 6.38 µM (active)

COc1ccccc1-c1sc2ccccc2c1-c1ccc(O)cc1
AC50 [1]: 5.22 µM (active)

Oc1ccc(Cl)cc1/C=N/c1ccc(Br)cc1
IC50 [11]: 22.3 µM (active)

Cc1ccc(-c2cs/c(=N\c3cccnc3)n2CCCn2ccnc2)cc1C
AC50 [3]: 6.59 µM (active) | EC50 [5]: 0.118 µM (active) | EC50 [9]: > 60 µM (not active)

O=[N+]([O-])c1cccc(-c2ccc(/C=N/Nc3nc(N4CCCCC4)nc(N4CCCCC4)n3)o2)c1
AC50 [3]: 96.7 µM (active)

CC(=O)Nc1nc(CCl)cs1
IC50 [4]: > 50 µM (not active)

COc1ccc(-c2ccc3c(c2)[C@H]2[C@H](CCN2C(=O)NC2CCCC2)[C@H](CO)N3C)cc1
AC50 [12]: 5.37 µM (active)

O=C(Nc1ccccc1F)N1CC(=O)N2[C@H](CO)[C@@H](c3ccc(-c4ccccc4)cc3)[C@H]2C1
AC50 [12]: 14.5 µM (active)
